Target: T1, GR (Homo sapiens, UniProt P04150)
T1 construct: expressed in transfected cells; host or cells: CHO-K1
T1 sequence (P04150 1-777): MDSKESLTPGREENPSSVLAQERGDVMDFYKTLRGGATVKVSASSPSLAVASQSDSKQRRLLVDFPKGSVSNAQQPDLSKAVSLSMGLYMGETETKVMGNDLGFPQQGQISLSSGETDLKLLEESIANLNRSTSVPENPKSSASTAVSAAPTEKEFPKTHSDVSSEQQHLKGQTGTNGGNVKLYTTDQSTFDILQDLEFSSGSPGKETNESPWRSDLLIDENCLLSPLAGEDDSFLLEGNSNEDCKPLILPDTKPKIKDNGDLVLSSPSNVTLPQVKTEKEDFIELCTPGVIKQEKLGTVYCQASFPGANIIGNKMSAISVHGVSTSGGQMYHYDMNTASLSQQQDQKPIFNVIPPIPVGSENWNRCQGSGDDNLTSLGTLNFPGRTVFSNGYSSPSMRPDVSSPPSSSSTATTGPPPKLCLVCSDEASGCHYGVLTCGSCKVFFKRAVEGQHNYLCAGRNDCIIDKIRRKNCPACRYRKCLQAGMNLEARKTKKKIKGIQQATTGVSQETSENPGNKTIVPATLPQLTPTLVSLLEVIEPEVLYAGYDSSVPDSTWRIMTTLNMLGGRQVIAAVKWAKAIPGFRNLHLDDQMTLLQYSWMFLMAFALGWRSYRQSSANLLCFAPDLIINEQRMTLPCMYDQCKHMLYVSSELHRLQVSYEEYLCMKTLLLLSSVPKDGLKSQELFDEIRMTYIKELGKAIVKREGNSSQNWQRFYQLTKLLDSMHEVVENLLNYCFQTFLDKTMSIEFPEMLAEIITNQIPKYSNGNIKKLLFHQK
Assay: In Vitro GR Luciferase Reporter Assay (antagonist mode, CHO-K1-GR-MMTV-Luc reporter cells)
Type: cell-based
Conditions: antagonist mode, 10 nM Dexamethasone
Summary of the method: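 CHO-K1-GR-MMTV-Luc cells in phenol red-free DMEM with 10% CSS, stimulated with 10 nM dexamethasone (final) and treated with 8-point 1:5 compound dilutions for about 18-24 h at 37° C. Luciferase measured by OneGlo luminescence; IC50 derived for inhibition of GR activity.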

Row | Compound | IC50 [µM]
1 | Cn1cc(S(=O)(=O)N(CCF)[C@H]2CCC3=Cc4c(cnn4-c4ccc(F)cc4)C[C@]3(C(=O)c3cc(C(F)(F)F)ccn3)C2)nn1 [Example 395, N-(2-fluoroethyl)-N-((4aS,6S)-1-(4-fluorophenyl)-4a-(4-(trifluoromethyl)picolinoyl)-4,4a,5,6,7,8-hexahydro-1H-benzo[f]indazol-6-yl)-1-methyl-1H-1,2,3-triazole-4-sulfonamide] | ≤ 0.1
2 | Cn1cc(S(=O)(=O)N(CCF)[C@H]2CCC3=Cc4c(cnn4-c4ccc(F)cc4)C[C@]3(C(=O)c3ncc(C(F)(F)F)s3)C2)cn1 [Example 396, N-(2-fluoroethyl)-N-((4aS,6S)-1-(4-fluorophenyl)-4a-(5-(trifluoromethyl)thiazole-2-carbonyl)-4,4a,5,6,7,8-hexahydro-1H-benzo[f]indazol-6-yl)-1-methyl-1H-pyrazole-4-sulfonamide] | ≤ 0.1
3 | Cn1ccc(S(=O)(=O)N(CCF)[C@H]2CCC3=Cc4c(cnn4-c4ccc(F)cc4)C[C@]3(C(=O)c3cc(F)ccn3)C2)n1 [Example 397, N-(2-fluoroethyl)-N-((4aS,6S)-1-(4-fluorophenyl)-4a-(4-fluoropicolinoyl)-4,4a,5,6,7,8-hexahydro-1H-benzo[f]indazol-6-yl)-1-methyl-1H-pyrazole-3-sulfonamide] | ≤ 0.1
4 | COCCN([C@H]1CCC2=Cc3c(cnn3-c3ccc(F)cc3)C[C@]2(C(=O)c2ncc(C(F)(F)F)s2)C1)S(=O)(=O)c1ncn(C)n1 [Example 398, N-((4aS,6S)-1-(4-fluorophenyl)-4a-(5-(trifluoromethyl)thiazole-2-carbonyl)-4,4a,5,6,7,8-hexahydro-1H-benzo[f]indazol-6-yl)-N-(2-methoxyethyl)-1-methyl-1H-1,2,4-triazole-3-sulfonamide] | ≤ 0.1
5 | Cn1ccc(S(=O)(=O)N(C2CC2)[C@H]2CCC3=Cc4c(cnn4-c4ccc(F)nc4)C[C@]3(C(=O)c3ncc(C(F)(F)F)s3)C2)n1 [Example 399, N-cyclopropyl-N-((4aS,6S)-1-(6-fluoropyridin-3-yl)-4a-(5-(trifluoromethyl)thiazole-2-carbonyl)-4,4a,5,6,7,8-hexahydro-1H-benzo[f]indazol-6-yl)-1-methyl-1H-pyrazole-3-sulfonamide] | ≤ 0.1
6 | Cn1ccc(S(=O)(=O)N(CC(=O)OC(C)(C)C)[C@H]2CCC3=Cc4c(cnn4-c4ccc(F)cc4)C[C@]3(C(=O)c3cc(C(F)(F)F)ccn3)C2)n1 [Example 400, tert-butyl N-((4aS,6S)-1-(4-fluorophenyl)-4a-(4-(trifluoromethyl)picolinoyl)-4,4a,5,6,7,8-hexahydro-1H-benzo[f]indazol-6-yl)-N-((1-methyl-1H-pyrazol-3-yl)sulfonyl)glycinate] | ≤ 0.1
7 | Cn1ccc(S(=O)(=O)N(CC(=O)O)[C@H]2CCC3=Cc4c(cnn4-c4ccc(F)cc4)C[C@]3(C(=O)c3cc(C(F)(F)F)ccn3)C2)n1 [Example 401, N-((4aS,6S)-1-(4-fluorophenyl)-4a-(4-(trifluoromethyl)picolinoyl)-4,4a,5,6,7,8-hexahydro-1H-benzo[f]indazol-6-yl)-N-((1-methyl-1H-pyrazol-3-yl)sulfonyl)glycine] | 0.1 to 1
8 | Cn1ccc(S(=O)(=O)N(C2CC2)[C@H]2CCC3=Cc4c(cnn4-c4ccc(F)nc4)C[C@]3(C(=O)c3cc(C(F)(F)F)ccn3)C2)n1 [Example 402, N-cyclopropyl-N-((4aS,6S)-1-(6-fluoropyridin-3-yl)-4a-(4-(trifluoromethyl)picolinoyl)-4,4a,5,6,7,8-hexahydro-1H-benzo[f]indazol-6-yl)-1-methyl-1H-pyrazole-3-sulfonamide] | ≤ 0.1
9 | Cn1ccc(S(=O)(=O)N(CCF)[C@H]2CCC3=Cc4c(cnn4-c4ccc(F)cc4)C[C@]3(C(=O)c3cc(Cl)ccn3)C2)n1 [Example 403, N-((4aS,6S)-4a-(4-chloropicolinoyl)-1-(4-fluorophenyl)-4,4a,5,6,7,8-hexahydro-1H-benzo[f]indazol-6-yl)-N-(2-fluoroethyl)-1-methyl-1H-pyrazole-3-sulfonamide] | ≤ 0.1
10 | COCCOCCN([C@H]1CCC2=Cc3c(cnn3-c3ccc(F)cc3)C[C@]2(C(=O)c2cc(C(F)(F)F)ccn2)C1)S(=O)(=O)c1ccc(F)cc1 [Example 404, 4-fluoro-N-((4aS,6S)-1-(4-fluorophenyl)-4a-(4-(trifluoromethyl)picolinoyl)-4,4a,5,6,7,8-hexahydro-1H-benzo[f]indazol-6-yl)-N-(2-(2-methoxyethoxy)ethyl)benzene-sulfonamide] | ≤ 0.1
11 | O=C(c1ncc(C(F)(F)F)s1)[C@]12Cc3cnn(-c4ccc(F)cc4)c3C=C1CC[C@H](N(CC(F)F)S(=O)(=O)c1ccc(F)cc1)C2 [Example 405, N-(2,2-difluoroethyl)-4-fluoro-N-((4aS,6S)-1-(4-fluorophenyl)-4a-(5-(trifluoromethyl)thiazole-2-carbonyl)-4,4a,5,6,7,8-hexahydro-1H-benzo[f]indazol-6-yl)benzenesulfonamide] | ≤ 0.1
12 | Cn1cc(S(=O)(=O)N(C2CC(F)(F)C2)[C@H]2CCC3=Cc4c(cnn4-c4ccc(F)cc4)C[C@]3(C(=O)c3ncc(C(F)(F)F)s3)C2)cn1 [Example 406, N-(3,3-difluorocyclobutyl)-N-((4aS,6S)-1-(4-fluorophenyl)-4a-(5-(trifluoromethyl)thiazole-2-carbonyl)-4,4a,5,6,7,8-hexahydro-1H-benzo[f]indazol-6-yl)-1-methyl-1H-pyrazole-4-sulfonamide] | ≤ 0.1
13 | O=C(c1cc(C(F)(F)F)ccn1)[C@]12Cc3cnn(-c4ccc(F)cc4)c3C=C1CC[C@H](N(CC(F)F)S(=O)(=O)c1ccc(F)cc1)C2 [Example 407, N-(2,2-difluoroethyl)-4-fluoro-N-((4aS,6S)-1-(4-fluorophenyl)-4a-(4-(trifluoromethyl)picolinoyl)-4,4a,5,6,7,8-hexahydro-1H-benzo[f]indazol-6-yl)benzenesulfonamide] | ≤ 0.1
14 | Cn1ccc(S(=O)(=O)N([C@H]2CCC3=Cc4c(cnn4-c4ccc(F)cc4)C[C@]3(C(=O)c3ncc(C(F)(F)F)s3)C2)[C@H]2C[C@@H](C#N)C2)n1 [Example 408, N-((1s,3R)-3-cyanocyclobutyl)-N-((4aS,6S)-1-(4-fluorophenyl)-4a-(5-(trifluoromethyl)thiazole-2-carbonyl)-4,4a,5,6,7,8-hexahydro-1H-benzo[f]indazol-6-yl)-1-methyl-1H-pyrazole-3-sulfonamide] | ≤ 0.1
15 | Cn1cnc(S(=O)(=O)N(CC2CC2)[C@H]2CCC3=Cc4c(cnn4-c4ccc(F)cc4)C[C@]3(C(=O)c3cc(F)ccn3)C2)n1 [Example 409, N-(cyclopropylmethyl)-N-((4aS,6S)-1-(4-fluorophenyl)-4a-(4-fluoropicolinoyl)-4,4a,5,6,7,8-hexahydro-1H-benzo[f]indazol-6-yl)-1-methyl-1H-1,2,4-triazole-3-sulfonamide] | ≤ 0.1
16 | Cn1cnc(S(=O)(=O)N(CC2CC2)[C@H]2CCC3=Cc4c(cnn4-c4ccc(F)cc4)C[C@]3(C(=O)c3cc(Cl)ccn3)C2)n1 [Example 410, N-((4aS,6S)-4a-(4-chloropicolinoyl)-1-(4-fluorophenyl)-4,4a,5,6,7,8-hexahydro-1H-benzo[f]indazol-6-yl)-N-(cyclopropylmethyl)-1-methyl-1H-1,2,4-triazole-3-sulfonamide] | ≤ 0.1
